Data on 3 compounds can be found in paper PMC11423509, “Structural basis of Pseudomonas aeruginosa penicillin binding protein 3 inhibition by the siderophore-antibiotic cefiderocol” (Chemical Science, 2024).

The target of experiment [1] is T1, P. aeruginosa PBP3 (Pseudomonas aeruginosa, UniProt G3XD46).
T1 construct: A gene encoding ftsI (PBP3, residues 50–579) from P. aeruginosa PAO1; made in house; host or cells: E. coli BL21(DE3)
The experiment is described as follows: biochemical. Particulars: 300 nM PBP3, 1.5 mM S2d, 0.5 mM mBBr; 10 min pre-incubation at 30 °C; mean ± standard error of three independent experiments; read-out: pIC50 (S2d, n = 3) (converted). The text has this:
(§1) PBP3 transpeptidases are proposed to be key targets for the cephalosporins and most other β-lactam antibiotics.[13] […] In one method, the thioester substrate analogue S2d is hydrolysed by PBP3 (ESI Scheme S1 ^†) releasing D-alanine and a free thiol.[15,16] The latter reacts with monobromobimane (mBBr), a fluorescent dye, enabling measurement of the turnover rate and determination of pIC50 values.
A positive control without inhibitor and a negative control lacking both enzyme and inhibitor were prepared. […]
(§2) independent repeats are shown. Error bars represent standard deviations from three technical replicates measured simultaneously. Average pIC50 values and inhibitor structures are provided […]
(§3) (1 picture or pasted object on this page, not shown here)

Experiment [2] deals with T1, P. aeruginosa PBP3. The experiment is described as follows: Meropenem competition binding experiment, PBP3-observed mass spectrometry. Particulars: 1 : 1 mixture of cephalosporin and meropenem (1 mM of each), 100 μM PBP3, 10 minutes co-incubation, quenched with formic acid. How it is done:
To further probe the relative rates of reaction of the four β-lactams with PBP3, a competitive binding experiment employing PBP3-observed mass spectrometry (MS) was developed. […] Following 10 minutes co-incubation with PBP3, the reactions were quenched with formic acid and analysed by protein-observed MS (under denaturing conditions) (Fig. 1).
The spectra shown are representative of three technical repeats.
Samples were then diluted in LC-MS-grade water (15 μM final concentration) and analysed using a Waters XeVo G2-S mass spectrometer coupled to a Waters Acquity-UPLC. 5 μL samples were injected onto a ThermoFisher Scientific ProSwift RP-4H (1 mm × 50 mm) column pre-equilibrated in 95%v/v water, 5%v/v MeCN. The column was eluted with a linear gradient from 5 to 95v/v% MeCN in water over ten minutes. All solvents contained 0.1%v/v formic acid. Data were analysed using MassLynx Version 4.1. The mass spectra obtained were deconvoluted using the MaxEnt1 algorithm.

The target in experiment [3] is T1, P. aeruginosa PBP3. Put plainly: biochemical. The class given is binding. Particulars: 311 nM PBP3, 30 nM Bocillin-FL; 10 min pre-incubation at 30 °C; mean ± standard error of three independent experiments; read-out: pIC50 (bocillin, n = 3) (converted).
Excerpt: as §1
A positive control without inhibitor and a negative control lacking both enzyme and inhibitor were prepared. In both cases the inhibitor/enzyme solution was replaced with an equal volume of buffer. Following incubation of the inhibitor with PBP3, Bocillin-FL (30 nM) was dispensed to initiate the reaction. Following a further incubation (10 min, 30 °C, 300 rpm) the fluorescence polarisation was measured using a BMG PHERAstar Microplate Reader (λEx/λEm = 480/520 nm) using black 384-well microplates (Greiner). The percentage inhibition of Bocillin-FL binding was calculated for each compound concentration by normalising with control wells. These measurements were used to calculate relative pIC50 values using the log([inhibitor]) against normalised response, fit, using GraphPad Prism version 10.2 (ESI Fig. S7 ^†).
Figure S7: Dose response curves for (A) cefiderocol, (B) ceftazidime, (C) cefepime and […]
assays were carried out with 311 nM PBP3 and 30 nM Bocillin-FL, with 10 minute pre-incubation with inhibitor compounds in 50 mM potassium phosphate, pH 7.4. […]
as §2, §3

Another experiment relates to PBP3. On the set-up: method as in earlier work. Particulars: Bocillin-FL assay under different conditions; ref 20 (Shapiro et al.); cited from earlier work.

Molecules are shown by their SMILES. Where two headings read alike, the source gives them in different places.

T1 sequence (G3XD46 50-579): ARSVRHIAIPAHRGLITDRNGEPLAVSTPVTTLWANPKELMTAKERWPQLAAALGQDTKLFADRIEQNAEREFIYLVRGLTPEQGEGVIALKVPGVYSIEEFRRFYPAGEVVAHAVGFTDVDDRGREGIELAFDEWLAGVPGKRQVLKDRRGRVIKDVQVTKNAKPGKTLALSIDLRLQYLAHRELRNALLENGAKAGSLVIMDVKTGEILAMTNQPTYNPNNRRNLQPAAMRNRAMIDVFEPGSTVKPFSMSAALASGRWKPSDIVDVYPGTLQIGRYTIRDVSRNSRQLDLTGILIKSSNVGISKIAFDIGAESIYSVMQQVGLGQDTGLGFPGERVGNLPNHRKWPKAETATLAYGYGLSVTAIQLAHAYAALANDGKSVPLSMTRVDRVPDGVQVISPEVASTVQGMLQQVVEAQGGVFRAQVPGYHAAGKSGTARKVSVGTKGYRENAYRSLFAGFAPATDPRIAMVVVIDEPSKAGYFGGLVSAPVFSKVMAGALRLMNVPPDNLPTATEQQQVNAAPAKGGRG

In the case of `CO/N=C(\C(=O)N[C@@H]1C(=O)N2C(C(=O)[O-])=C(C[N+]3(C)CCCC3)CS[C@H]12)c1csc(N)n1` [Cefepime, cefepime], the IC50 at P. aeruginosa PBP3 [1] was 39.8 nM; at P. aeruginosa PBP3 [3], 100 nM. For the same compound, on P. aeruginosa PBP3 [2], the “PBP3 complex formed in competition with meropenem (protein-observed MS)” value (“PBP3 complex formed in competition” below) was “∼1 : 1 mixture of cefepime and meropenem modified PBP”.

`CC(C)(O/N=C(\C(=O)N[C@@H]1C(=O)N2C(C(=O)[O-])=C(C[N+]3(CCNC(=O)c4ccc(O)c(O)c4Cl)CCCC3)CS[C@H]12)c1csc(N)n1)C(=O)O` [Cefiderocol, cefiderocol]: the values for the IC50 at P. aeruginosa PBP3 [1] and on P. aeruginosa PBP3 [3] were 50.1 nM and 100 nM, respectively. Further, on P. aeruginosa PBP3 [2], the “PBP3 complex formed in competition” value is on record as “a small amount of cefiderocol modified PBP3 was observed”.

As for `CC(C)(O/N=C(\C(=O)N[C@@H]1C(=O)N2C(C(=O)[O-])=C(C[n+]3ccccc3)CS[C@H]12)c1csc(N)n1)C(=O)O` [Ceftazidime, ceftazidime], the “PBP3 inhibition relative to meropenem” value with PBP3 is on record as “more inhibition with ceftazidime than meropenem”. In addition, the IC50 was 79.4 nM at P. aeruginosa PBP3 [1] and 251 nM at P. aeruginosa PBP3 [3]. On P. aeruginosa PBP3 [2], the “PBP3 complex formed in competition” value is “exclusively meropenem-modified PBP3”.
